A short description of series [1]: Cytotoxicity in HepG2 cells, Resazurin viability assay. To be noted: human, HepG2 cells, HepG2 4 days CC50 (μM), incubated for 4 days, Resazurin assay.
The test system of series [2] is HBV. The experiment in a line: Anti-HBV activity, HepG2.2.15 stable transfected cell line, HBV DNA from secreted virions by realtime PCR. The format is cell-based. Particulars: Hepatitis B virus, HepG2.2.15, 144 h, HepG2.2.15 cells, 6 days of treatment, HBV DNA from secreted virions; read-out: HepG2 2.15 EC50.
Series [3] relates to HBV. In words: Anti-HBV activity, HepG2.117 inducibly HBV producing cell line (Tet-off), intracellular HBV DNA by realtime PCR. The series is classed as cell-based. Particulars: Hepatitis B virus, HepG2.117, 72 h, HepG2.117 cells, 3 days of treatment, intracellular HBV DNA; read-out: HepG2 117 EC50.

In turn, `CC(NS(=O)(=O)c1cc(C(=O)Nc2ccc(F)c(Cl)c2F)n(C)c1)C(F)F` (stereo not drawn) [Compound 252, N-(3-chloro-2,4-difluoro-phenyl)-4-[(2,2-difluoro-1-methyl-ethyl)sulfamoyl]-1-methyl-1H-pyrrole-2-carboxamide] showed a 50% cytotoxic concentration (CC50) at 4 days in series [1] greater than 25 µM. The EC50 in the series with HBV [2] came to 50 nM; with HBV [3] it was 80 nM.
The corresponding values for `Cn1cc(S(=O)(=O)NC(C)(C)C)cc1C(=O)Nc1cc(F)c(F)c(Cl)c1` [Compound 58, 4-(tert-butylsulfamoyl)-N-(3-chloro-4,5-difluoro-phenyl)-1-methyl-pyrrole-2-carboxamide] are greater than 25 µM, 90 nM and 60 nM.
On the same counts, the results for `COCc1c(S(=O)(=O)N[C@H](C)C(F)(F)F)c(F)c(C(=O)Nc2ccc(F)c(C#N)c2)n1C` [Compound 309, N-(3-cyano-4-fluoro-phenyl)-3-fluoro-5-(methoxymethyl)-1-methyl-4-[[(1R)-2,2,2-trifluoro-1-methyl-ethyl]sulfamoyl]pyrrole-2-carboxamide] are greater than 25 µM, 530 nM and 320 nM.
The corresponding values for `Cn1cc(S(=O)(=O)NC(C)(C)C)cc1C(=O)Nc1cccc(C#N)c1` [Compound 191, 4-(tert-Butylsulfamoyl)-N-(3-cyanophenyl)-1-methyl-1H-pyrrole-2-carboxamide] are greater than 25 µM, 180 nM and 160 nM.
`Cc1c(S(=O)(=O)NC2(C)COC2)cn(C)c1C(=O)Nc1ccc(F)c(Cl)c1F` [Compound 243, N-(3-Chloro-2,4-difluorophenyl)-1,3-dimethyl-4-[(3-methyloxetan-3-yl)sulfamoyl]-1H-pyrrole-2-carboxamide] showed a 50% cytotoxic concentration (CC50) at 4 days in series [1] greater than 25 µM. Further, the EC50 is 110 nM in the series on HBV [2] and 100 nM in the series with HBV [3].
On the same counts, the results for `Cn1cc(S(=O)(=O)NC2(C(F)(F)F)CCC2)c(Cl)c1C(=O)Nc1ccc(F)c(Cl)c1` [Compound 268, 3-chloro-N-(3-chloro-4-fluoro-phenyl)-1-methyl-4-{[1-(trifluoro-methyl)cyclobutyl]sulfamoyl}-1H-pyrrole-2-carboxamide] are greater than 25 µM, 5 nM and 6 nM.
On the same counts, the results for `Cc1cc(NC(=O)c2c(F)c(S(=O)(=O)N[C@H](C)C(F)(F)F)cn2C)cc(C#N)c1F` [Compound 283, N-(3-cyano-4-fluoro-5-methyl-phenyl)-3-fluoro-1-methyl-4-[[(1R)-2,2,2-trifluoro-1-methyl-ethyl]sulfamoyl]pyrrole-2-carboxamide] are greater than 25 µM, 20 nM and 30 nM.
Consider `C[C@@H](NS(=O)(=O)c1cn(C)c(C(=O)Nc2ccc(F)c(C(F)(F)F)c2)c1Cl)C(F)(F)F` [Compound 274, 3-chloro-N-[4-fluoro-3-(trifluoromethyl)phenyl]-1-methyl-4-[[(1R)-2,2,2-trifluoro-1-methyl-ethyl]sulfamoyl]pyrrole-2-carboxamide], for which it took 19.4 µM to reach half-maximal cytotoxicity in series [1] (CC50 at 4 days). The concentration giving a half-maximal response (EC50) was 20 nM with HBV [2] and 40 nM with HBV [3].
On the same counts, the results for `C[C@@H](NS(=O)(=O)c1cc(C(=O)Nc2ccc(F)c(C#N)c2)n(C)c1)C(C)(F)F` [Compound 298, N-(3-cyano-4-fluoro-phenyl)-4-[[(1R)-2,2-difluoro-1-methyl-propyl]-sulfamoyl]-1-methyl-pyrrole-2-carboxamide] are 23.7 µM, 20 nM and 50 nM.
The corresponding values for `C[C@@H](NS(=O)(=O)c1cn(C)c(C(=O)Nc2ccc(F)c(F)c2F)c1F)C(F)(F)F` [Compound 183, 3-Fluoro-1-methyl-4-{[(1R)-2,2,2-trifluoro-1-methylethyl]sulfamoyl}-N-(2,3,4-trifluorophenyl)-1H-pyrrole-2-carboxamide] are greater than 25 µM, 20 nM and 10 nM.

As a reminder, the CC50 is the concentration at which the toxic effect on the cells reaches its halfway point. Read a low CC50 as greater toxicity to the cells. The EC50 is the midpoint of the concentration-response curve.

For the origin of these results see US9884818B2, “Sulphamoylpyrrolamide derivatives and the use thereof as medicaments for the treatment of hepatitis B” (Janssen Sciences Ireland UC, priority 2013, dated 2018).
